Experimental data published in PubChem BioAssay AID1963966 (Molecular Pharmacology Branch, DTP, NCI, 2024).

Test system: 935938-334-R-J1-PDC spheroids with HUVEC/MSC, viability
Test: Anticancer human tumor 935938-334-R-J1-PDC patient-derived small intestine adenocarcinoma cell line growth inhibition [PI3K]
Settings: for IC50: curve of first compound; for viability, T/C: stronger effect = lower value
From the text: Combinatorial screen of targeted agents with the PI3K inhibitors inavolisib, alpelisib, duvelisib, and copanlisib in multi-cell type tumor spheroids
A high-throughput screen of multi-cell type tumor spheroids was designed to identify active combinations of targeted small molecules and PI3K pathway inhibitors. Complex spheroids include a stromal component modeled by human endothelial cells (HUVEC) and fibroblasts modeled by human mesenchymal stem cells (MSCs). The concentration ranges selected for each drug and investigational agent were based upon clinically achievable concentrations if the clinical Cmax of the agent was known.
Compounds. The drugs and investigational agents: inavolisib (NSC800729), alpelisib (NSC765974), duvelisib (NSC772469), copanlisib (NSC816437), ipatasertib (NSC767898), afuresertib (NSC778305), talazoparib (NSC767125), sapanisertib (NSC764658), selumetinib (NSC741078), tovorafenib (DAY101, NSC766906), vemurafenib (NSC761431), ravoxertinib (NSC781343), sotorasib (NSC818433), MRTX1133 (NSC 836407), abemaciclib (NSC 768073), palbociclib (NSC758247), venetoclax (NSC 766270), SY5609 (NSC837396), enzalutamide (NSC755605), and darolutamide (NSC825331), were obtained from the National Cancer Institute (NCI) Developmental Therapeutics Program Chemical Repository. The FDA-approved anticancer drug set is available from the NCI Developmental Therapeutics Program. […] The stock solutions were prepared in dimethyl sulfoxide (DMSO, Sigma-Aldrich, St. Louis, MO, cat. D2650) at 800-fold the tested concentration and stored at -70 degrees C prior to their use. All drugs and investigational agents were tested over a range starting from a high concentration at or near the clinical Cmax and decreasing in half-log increments. If the clinical Cmax for an agent had not been determined, the highest concentration tested was 10 microM.
Cell Culture. All cells were maintained in an incubator at 37 degrees C and 5% CO2 with 95% humidity. The PDC lines were cultured according to standard operating procedures established by the NCI PDMR (https://pdmr.cancer.gov/sops/default.htm). All PDCs were thawed and cultured in Matrigel-coated flasks prepared with a working solution of 1X Ham's F-12 nutrient mix, without supplementation (Invitrogen, Waltham, MA, cat. 11765054), 100 U/mL penicillin-streptomycin (Invitrogen, cat. 15140122), and 2.5% Matrigel (Corning Inc., Corning, NY, cat. 354248) for the first three passages. The 354836-022-R-J1-PDC, 475296-252-R-J1-PDC, and 997726-040-R-J2-PDC lines were cultured in 6A media, which includes advanced DMEM/F-12 (Thermo Fisher Scientific, cat. 12634028), 10 mM HEPES (Thermo Fisher Scientific, cat. 15630080), 1X GlutaMAX supplement (Thermo Fisher Scientific, cat. 35050061), 0.1 mg/mL primocin (InvivoGen, San Diego, CA, cat. ant-pm-2), 10% defined fetal bovine serum, heat inactivated (HyClone Laboratories Inc., Logan, UT, cat. SH30070.03HI), 50% L-WRN conditioned media (ATCC, cat. CRL-3276), 1.25 mM N-Acetyl-L-cysteine (Sigma-Aldrich, cat. A9165), 10 mM nicotinamide (Sigma-Aldrich, cat. N0636), 1X B-27 supplement (Thermo Fisher Scientific, cat. 17504044), 1X N-2 supplement (Thermo Fisher Scientific, cat. 17502048), and 10 microM Y-27632 dihydrochloride (Tocris Bioscience, Bristol, United Kingdom, cat. 1254). The 624824-186-R-J2-PDC line was cultured in 6C/Colon 1B media, which includes all 6A media components plus 50 ng/mL human EGF recombinant protein (Thermo Fisher Scientific, cat. PHG0311). […]
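Also: compound exposure lasted seven days before viability was read.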
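For viability, T/C in this document: percent of vehicle DMSO treated spheroid viability so 100% = untreated.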

Question: For `CNC(=O)c1ccc(N2C(=S)N(c3ccc(C#N)c(C(F)(F)F)c3)C(=O)C2(C)C)cc1F` + CC(Nc1ccc2c(c1)OCCn1cc(N3C(=O)OCC3C(F)F)nc1-2)C(N)=O, which IC50 (second compound 0.00316 µM) is on record?
Answer: > 10000 nM

Question: What about the IC50 (second compound 0.01 µM) of the same molecule?
Answer: > 10000 nM

Question: What about the IC50 (second compound 0.0316 µM) of the same molecule?
Answer: > 10000 nM

Question: And the IC50 (second compound 0.1 µM)?
Answer: > 10000 nM

Question: And the IC50 (second compound 0.316 µM)?
Answer: > 10000 nM

Question: What about the IC50 (second compound 1 µM) of the same molecule?
Answer: 3160 nM

Question: What about the viability, T/C (second compound 0.00316 µM, first compound 0.0316 µM) of the same molecule?
Answer: 99.4%

Question: What about the viability, T/C (second compound 0.00316 µM, first compound 0.1 µM) of the same molecule?
Answer: 108%

Question: And the viability, T/C (second compound 0.00316 µM, first compound 0.316 µM)?
Answer: 99.5%

Question: What about the viability, T/C (second compound 0.00316 µM, first compound 1 µM) of the same molecule?
Answer: 102%

Question: What about the viability, T/C (second compound 0.00316 µM, first compound 3.16 µM) of the same molecule?
Answer: 97.1%

Question: And the viability, T/C (second compound 0.00316 µM, first compound 10 µM)?
Answer: 86%

Question: And the viability, T/C (second compound 0.01 µM, first compound 0.0316 µM)?
Answer: 99.9%

Question: And the viability, T/C (second compound 0.01 µM, first compound 0.1 µM)?
Answer: 89.9%

Question: And the viability, T/C (second compound 0.01 µM, first compound 0.316 µM)?
Answer: 108%

Question: And the viability, T/C (second compound 0.01 µM, first compound 1 µM)?
Answer: 78.3%

Question: And the viability, T/C (second compound 0.01 µM, first compound 3.16 µM)?
Answer: 102%

Question: What about the viability, T/C (second compound 0.01 µM, first compound 10 µM) of the same molecule?
Answer: 97.6%

Question: What about the viability, T/C (second compound 0.0316 µM, first compound 0.0316 µM) of the same molecule?
Answer: 102%

Question: And the viability, T/C (second compound 0.0316 µM, first compound 0.1 µM)?
Answer: 95.6%

Question: What about the viability, T/C (second compound 0.0316 µM, first compound 0.316 µM) of the same molecule?
Answer: 90.7%

Question: And the viability, T/C (second compound 0.0316 µM, first compound 1 µM)?
Answer: 110%

Question: And the viability, T/C (second compound 0.0316 µM, first compound 3.16 µM)?
Answer: 97.8%

Question: And the viability, T/C (second compound 0.0316 µM, first compound 10 µM)?
Answer: 86.3%

Question: What about the viability, T/C (second compound 0.1 µM, first compound 0.0316 µM) of the same molecule?
Answer: 80.4%

Question: What about the viability, T/C (second compound 0.1 µM, first compound 0.1 µM) of the same molecule?
Answer: 99.4%

Question: And the viability, T/C (second compound 0.1 µM, first compound 0.316 µM)?
Answer: 90.3%

Question: What about the viability, T/C (second compound 0.1 µM, first compound 1 µM) of the same molecule?
Answer: 93.8%

Question: What about the viability, T/C (second compound 0.1 µM, first compound 3.16 µM) of the same molecule?
Answer: 79.2%

Question: And the viability, T/C (second compound 0.1 µM, first compound 10 µM)?
Answer: 105%

Question: And the viability, T/C (second compound 0.316 µM, first compound 0.0316 µM)?
Answer: 86.9%

Question: What about the viability, T/C (second compound 0.316 µM, first compound 0.1 µM) of the same molecule?
Answer: 72.7%

Question: What about the viability, T/C (second compound 0.316 µM, first compound 0.316 µM) of the same molecule?
Answer: 73.7%

Question: And the viability, T/C (second compound 0.316 µM, first compound 1 µM)?
Answer: 83.1%

Question: And the viability, T/C (second compound 0.316 µM, first compound 3.16 µM)?
Answer: 82.4%

Question: And the viability, T/C (second compound 0.316 µM, first compound 10 µM)?
Answer: 64.7%

Question: And the viability, T/C (second compound 1 µM, first compound 0.0316 µM)?
Answer: 61.6%

Question: And the viability, T/C (second compound 1 µM, first compound 0.1 µM)?
Answer: 66.5%

Question: What about the viability, T/C (second compound 1 µM, first compound 0.316 µM) of the same molecule?
Answer: 72.7%

Question: And the viability, T/C (second compound 1 µM, first compound 1 µM)?
Answer: 43.7%

Question: What about the viability, T/C (second compound 1 µM, first compound 3.16 µM) of the same molecule?
Answer: 61.5%

Question: And the viability, T/C (second compound 1 µM, first compound 10 µM)?
Answer: 53.3%

Question: What does the source list for `Cn1cnc2c(F)c(Nc3ccc(Br)cc3Cl)c(C(=O)NOCCO)cc21` + CC(Nc1ccc2c(c1)OCCn1cc(N3C(=O)OCC3C(F)F)nc1-2)C(N)=O?
Answer: IC50 (second compound 0.00316 µM): 49.6 nM; IC50 (second compound 0.01 µM): 29.9 nM; IC50 (second compound 0.0316 µM): 65.4 nM; IC50 (second compound 0.1 µM): 27.4 nM; IC50 (second compound 0.316 µM): 18.3 nM; IC50 (second compound 1 µM): < 9.49 nM; viability, T/C (second compound 0.00316 µM, first compound 0.00949 µM): 86.3%; viability, T/C (second compound 0.00316 µM, first compound 0.03 µM): 57.2%; viability, T/C (second compound 0.00316 µM, first compound 0.0949 µM): 39.2%; viability, T/C (second compound 0.00316 µM, first compound 0.3 µM): 30.1%; viability, T/C (second compound 0.00316 µM, first compound 0.949 µM): 20.9%; viability, T/C (second compound 0.00316 µM, first compound 3 µM): 16.8%; viability, T/C (second compound 0.01 µM, first compound 0.00949 µM): 71.2%; viability, T/C (second compound 0.01 µM, first compound 0.03 µM): 50.9%; viability, T/C (second compound 0.01 µM, first compound 0.0949 µM): 33.8%; viability, T/C (second compound 0.01 µM, first compound 0.3 µM): 26.5%; viability, T/C (second compound 0.01 µM, first compound 0.949 µM): 26.5%; viability, T/C (second compound 0.01 µM, first compound 3 µM): 17.9%; viability, T/C (second compound 0.0316 µM, first compound 0.00949 µM): 79.1%; viability, T/C (second compound 0.0316 µM, first compound 0.03 µM): 65.3%; viability, T/C (second compound 0.0316 µM, first compound 0.0949 µM): 38.8%; viability, T/C (second compound 0.0316 µM, first compound 0.3 µM): 34.3%; viability, T/C (second compound 0.0316 µM, first compound 0.949 µM): 23.8%; viability, T/C (second compound 0.0316 µM, first compound 3 µM): 15.8%; viability, T/C (second compound 0.1 µM, first compound 0.00949 µM): 58%; viability, T/C (second compound 0.1 µM, first compound 0.03 µM): 46.4%; viability, T/C (second compound 0.1 µM, first compound 0.0949 µM): 39.7%; viability, T/C (second compound 0.1 µM, first compound 0.3 µM): 23.1%; viability, T/C (second compound 0.1 µM, first compound 0.949 µM): 16.8%; viability, T/C (second compound 0.1 µM, first compound 3 µM): 18.3%; viability, T/C (second compound 0.316 µM, first compound 0.00949 µM): 56.4%; viability, T/C (second compound 0.316 µM, first compound 0.03 µM): 45.3%; viability, T/C (second compound 0.316 µM, first compound 0.0949 µM): 22.7%; viability, T/C (second compound 0.316 µM, first compound 0.3 µM): 19%; viability, T/C (second compound 0.316 µM, first compound 0.949 µM): 16.8%; viability, T/C (second compound 0.316 µM, first compound 3 µM): 12.7%; viability, T/C (second compound 1 µM, first compound 0.00949 µM): 44.3%; viability, T/C (second compound 1 µM, first compound 0.03 µM): 31.3%; viability, T/C (second compound 1 µM, first compound 0.0949 µM): 20.7%; viability, T/C (second compound 1 µM, first compound 0.3 µM): 17.4%; viability, T/C (second compound 1 µM, first compound 0.949 µM): 17.4%; viability, T/C (second compound 1 µM, first compound 3 µM): 12%
